Experimental data as given in US12337004B2, “Coumarin-modified androgens for the treatment of prostate cancer” (Health Research, Inc., priority 2019, dated 2025).

Columns and labels:
KLK2 [1] = assay: qRT-PCR of AR-regulated gene KLK2; format: cell-based; conditions: 24 hours; VCaP, LAPC-4, LNCaP, CWR-R1 and 22rv1 cells
KLK2 [2] = assay: Western blot of AR-regulated protein expression; format: cell-based; conditions: CaP cell lines
ARE-luciferase = ARE-luciferase transactivation; format: cell-based
VCaP cells = assay: MTT cell growth, VCaP; format: cell-based
Method: (§1) Identification of a 3α-oxidoreductase inhibitors: Various non-steroidal compounds were tested for anti-neoplastic activity by screening against PC-3 CaP cells. Coumarin-labeled androgens were developed to track changes in androgen metabolism pathways in response to castration or androgen metabolism inhibition using in vitro and in vivo CaP cell models.
(§2) VCaP, CWR-R1 and PC-3 cells were treated for six days with complete culture media (CM), serum-free culture media (SFM), bicalutamide (Bic) at 10 μM, the coumarin C at 20 μM, DHT at 10 nM, DHT-17C at 20 nM and DHT-3C at 20 nM (FIG. 20). […] MTT analysis was performed to compare cell growth impairment of VCaP cells treated with DHT-17C versus enzalutamide. Cells were treated with DHT-17C at 1 nM, 12 nM, 20 nM, 50 nM or 100 nM concentrations, or enzalutamide at 1 μM, 12 μM, 20 μM, 50 μM or 100 μM concentrations. […] MTT performed using ezanlutamide (20 uM) or DHT-17C (50 nM) treated mutant AR and AR-V7 positive CWR-R1 cells supported VCaP MTT data (FIG. 22).

CWR-R1 cells = assay: MTT cell growth, CWR-R1; format: cell-based, human; conditions: six days
Method: as §1, §2

LAPC-4 cells = assay: MTT cell growth, LAPC-4; format: cell-based; conditions: six days; data not shown
LNCaP cells = assay: MTT cell growth, LNCaP; format: cell-based; conditions: six days; data not shown
22Rv1 cells = assay: MTT cell growth, 22Rv1; format: cell-based; conditions: six days; data not shown
PC-3 cells = assay: MTT cell growth, AR-negative PC-3; format: cell-based; conditions: six days, 20 nM
Method: as §1, §2

DU145 cells = assay: MTT cell growth, DU145; format: cell-based; conditions: AR-negative
[3] = test system: CV-1 monkey kidney cell line; assay: MTT cell growth, CV-1; format: cell-based; conditions: non-CaP cell line
[4] = test system: 293 human kidney cell line; assay: MTT cell growth, 293; format: cell-based; conditions: non-CaP cell line
AR-GFP [5] = target: T1, AR-GFP (Homo sapiens, UniProt P10275); assay: ImageStream nuclear co-localization with AR-GFP; format: cell-based; conditions: VCaP-AR-GFP and PC-3-AR-GFP cells
T1 construct: expressed in transfected cells; host or cells: VCaP, PC-3 (also LAPC-4, CWR-R1, 22Rv1, DU145)
T1 sequence (P10275 1-920): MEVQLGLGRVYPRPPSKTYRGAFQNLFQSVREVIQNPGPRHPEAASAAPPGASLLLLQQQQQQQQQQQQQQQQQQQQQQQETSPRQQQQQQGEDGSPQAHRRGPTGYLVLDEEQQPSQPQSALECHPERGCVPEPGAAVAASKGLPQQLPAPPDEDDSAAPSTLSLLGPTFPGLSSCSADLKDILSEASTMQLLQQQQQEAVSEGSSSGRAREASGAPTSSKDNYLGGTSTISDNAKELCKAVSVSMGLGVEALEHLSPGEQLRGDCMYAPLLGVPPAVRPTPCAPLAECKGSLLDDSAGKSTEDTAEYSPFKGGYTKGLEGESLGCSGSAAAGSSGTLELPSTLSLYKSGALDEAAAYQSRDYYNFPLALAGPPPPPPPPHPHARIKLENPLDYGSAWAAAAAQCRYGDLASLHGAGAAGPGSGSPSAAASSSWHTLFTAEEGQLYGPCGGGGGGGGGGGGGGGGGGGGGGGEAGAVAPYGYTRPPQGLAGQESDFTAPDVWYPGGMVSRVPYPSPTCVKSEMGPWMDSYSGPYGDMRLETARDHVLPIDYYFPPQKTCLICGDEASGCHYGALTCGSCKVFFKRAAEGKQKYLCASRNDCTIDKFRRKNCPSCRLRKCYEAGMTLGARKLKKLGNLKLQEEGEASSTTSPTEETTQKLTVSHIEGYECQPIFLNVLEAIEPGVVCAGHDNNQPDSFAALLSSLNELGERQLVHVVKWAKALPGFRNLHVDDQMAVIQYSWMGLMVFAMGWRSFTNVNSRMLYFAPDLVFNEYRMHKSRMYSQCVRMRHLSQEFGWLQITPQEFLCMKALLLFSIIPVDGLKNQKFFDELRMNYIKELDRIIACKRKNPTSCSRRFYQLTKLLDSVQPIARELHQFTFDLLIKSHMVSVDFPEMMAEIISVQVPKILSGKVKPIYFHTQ
Text: Androgen-sensitive AR-positive LAPC-4 and VCaP, castration-recurrent and AR-positive CWR-R1 and CWR-22rv1 (22rv1), and AR-negative PC-3 and DU145 cells were transfected with either an empty pCMV expression plasmid (control) or a pCMV plasmid that encoded a wild-type AR tagged with a C-terminal green fluorescent protein (GFP; AR-GFP). AR-positive CaP cell lines were transfected with AR-GFP to assess if DHT-17C or DHT-3C co-localized with AR and translocated to the nucleus.
AR positive CaP cell lines were treated for 16 hours with androgen-free, serum-free complete media (SFM) alone, or SFM that contained 20 nM or 50 nM fluorescent-androgens or C alone. The time points were chosen to measure differences in uptake of the fluorescent-androgens and nuclear or cytosolic localization of the fluorescent-androgens and/or AR-GFP.
Serum-free complete media (SFM)^2 was used to androgen deprive cells.

AR-V2-GFP = target: T2, AR-V2-GFP (Homo sapiens, UniProt P10275); assay: ImageStream co-localization with AR-V2-GFP; format: cell-based; conditions: VCaP and PC-3 cells that stably expressed AR-V2-GFP
T2 construct: stably expressed AR170 LBD only with splice variant V2 (AR-V2-GFP); expressed in transfected cells; host or cells: VCaP, PC-3
T2 sequence (P10275 1-388 isoform P10275-2): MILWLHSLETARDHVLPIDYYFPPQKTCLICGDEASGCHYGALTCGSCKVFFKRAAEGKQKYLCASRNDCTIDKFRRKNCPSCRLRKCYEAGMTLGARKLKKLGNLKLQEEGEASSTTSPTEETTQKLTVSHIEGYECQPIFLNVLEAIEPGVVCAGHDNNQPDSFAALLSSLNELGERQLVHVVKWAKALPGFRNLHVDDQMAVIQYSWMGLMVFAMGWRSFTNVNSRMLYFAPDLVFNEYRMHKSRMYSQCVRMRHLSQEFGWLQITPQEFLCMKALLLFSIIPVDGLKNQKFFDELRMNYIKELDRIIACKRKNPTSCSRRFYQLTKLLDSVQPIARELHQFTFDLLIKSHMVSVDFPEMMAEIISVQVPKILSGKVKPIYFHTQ
Method: ImageStream studies were repeated using VCaP and PC-3 cells that stably expressed AR-V2 (splice-variant that lacked the N-terminus) with C-terminal GFP (AR-V2-GFP). […] ImageStream data was confirmed using immunoprecipation (IP) studies performed with a DHT-targeted antibody.
Serum-free complete media (SFM)^2 was used to androgen deprive cells. PC-3 cells that contained empty plasmid were treated with SFM alone, SFM with C or SFM with DHT-3C.

AR-GFP [6] = target: T1, AR-GFP; format: cell-based; conditions: DHT-17C versus enzalutamide
Text: (§4) ImageStream was used to perform competition studies between DHT-17C and enzalutamide for AR-GFP or AR-V2 to establish that DHT-17C targets the AR-LBD.

AR-V2 = target: T3, AR-V2 (Homo sapiens, UniProt P10275); format: cell-based; conditions: DHT-17C versus enzalutamide
T3 construct: stably expressed AR170 LBD only with splice variant V2 (AR-V2-GFP); expressed in transfected cells; host or cells: VCaP, PC-3
T3 sequence (P10275 1-388 isoform P10275-2): T2 sequence (P10275 1-388 isoform P10275-2)
Text: as §4

RDH16-YFP [7] = target: T4, RDH16-YFP (Homo sapiens, UniProt O75452); assay: ImageStream competition for RDH16-YFP; format: cell-based; conditions: PC-3 cells that stably expressed RDH16-YFP
T4 construct: expressed in transfected cells; host or cells: PC-3
T4 sequence (O75452 1-317): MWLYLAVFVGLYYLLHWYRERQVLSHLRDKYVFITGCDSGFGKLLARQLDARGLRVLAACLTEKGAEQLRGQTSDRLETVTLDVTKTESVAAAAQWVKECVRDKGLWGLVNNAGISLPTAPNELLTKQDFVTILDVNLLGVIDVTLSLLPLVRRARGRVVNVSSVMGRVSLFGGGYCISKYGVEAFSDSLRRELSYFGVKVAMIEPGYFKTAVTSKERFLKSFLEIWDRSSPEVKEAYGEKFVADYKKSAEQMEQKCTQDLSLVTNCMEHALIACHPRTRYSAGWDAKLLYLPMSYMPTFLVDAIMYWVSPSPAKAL
Method: (§3) ImageStream (ImageStream^X-MKII Flow Cytometer [Amnis, Seattle, WA]) is a hybrid technique that combines the statistical power of flow cytometry and the imaging capability of fluorescence microscopy that was adapted to study simultaneously DIOL-17C compartmental localization and activity. ImageStream data were normalized against single-stained controls and analyzed using Image Data Exploration and Analysis Software (IDEAS; Amnis). The similarity score was measured by comparing two images of the same cell pixel by pixel. If the similarity score was >0, the two objects (RDH16-YFP and DIOL-17C) were co-localized.

RDH16-YFP [8] = target: T4, RDH16-YFP; assay: ImageStream co-localization with RDH16-YFP; format: cell-based; conditions: PC-3-RDH16-YFP cells
Method: as §3

3α-oxidoreductase = assay: LC-MS/MS of CaP cells treated with DIOL-17C; format: in vitro ADME

C[C@]12CCC(=O)C[C@@H]1CC[C@@H]1[C@@H]2CC[C@]2(C)[C@@H](O)CC[C@@H]12 [DHT, 5α-dihydrotestosterone, reference compound]
KLK2 transcript induction (KLK2 [1]): produced similar inductions of expression | AR-regulated protein expression levels (KLK2 [2]): produced similar AR-regulated protein expression levels | ARE-luciferase signal (ARE-luciferase): produced ARE-luciferase signal

C[C@]12CCC3C(CC[C@H]4CC(=O)CC[C@]34C)C1CC[C@@H]2OCC(=O)NCCc1cc(=O)oc2c3c4c(cc12)CCCN4CCC3 (stereo partly drawn) [DHT-17C, N-2′-(2,3,4,5-Tetrahydro-1H,4H-10-keto-11-oxa-3α-azabenzo[de]anthracenyl)ethyl (3-keto-5α-androstan-17β-yl)glycolamide]
dose lower than enzalutamide for VCaP growth inhibition (VCaP cells; DHT-17C 20 nM vs enzalutamide 20 μM, AR-V7 positive VCaP): 1000 × | VCaP cell growth impairment versus enzalutamide (VCaP cells; DHT-17C at 1, 12, 20, 50 or 100 nM): impaired VCaP cell growth to similar extents as enzalutamide | VCaP cell growth (MTT) (VCaP cells; six days, DHT-17C at 20 nM, DHT-3C at 20 nM): impaired VCaP and CWR-R1 cell growth | VCaP cell growth, combination with bicalutamide (VCaP cells; six days, bicalutamide 10 μM, p-values<0.05): enhanced the effect of bicalutamide | CWR-R1 cell growth (MTT) (CWR-R1 cells; DHT-17C at 20 nM, DHT-3C at 20 nM): impaired VCaP and CWR-R1 cell growth | CWR-R1 cell growth, combination with bicalutamide (CWR-R1 cells; bicalutamide 10 μM, p-values<0.05): enhanced the effect of bicalutamide | LAPC-4 cell growth (MTT) (LAPC-4 cells): produced similar responses | LNCaP cell growth (MTT) (LNCaP cells): produced similar responses | 22Rv1 cell growth (MTT) (22Rv1 cells): produced similar responses | PC-3 cell growth (MTT) (PC-3 cells): did not impair cell growth | DU145 cell growth (MTT) (DU145 cells): did not impair cell growth | CV-1 cell growth (MTT) [3]: did not impair cell growth | 293 cell growth (MTT) [4]: did not impair cell growth | nuclear co-localization with AR-GFP and DRAQ5 (AR-GFP [5]): co-localized with AR-GFP | co-localization with AR-V2-GFP (AR-V2-GFP): co-localized with DRAQ5 and AR-V2-GFP | competition for the AR-LBD of wild-type AR (AR-GFP [6]): compete for the AR-LBD of wild-type AR and AR-V2 | competition for the AR-LBD of AR-V2 (AR-V2): compete for the AR-LBD of wild-type AR and AR-V2 | KLK2 transcript induction (KLK2 [1]): did not induce KLK2 transcript formation

C[C@]12CC[C@@H](O)C[C@@H]1CC[C@@H]1[C@@H]2CC[C@]2(C)[C@@H](O)CC[C@@H]12 [DIOL, 5α-androstane-3α,17β-diol, reference compound]
competition for RDH16-YFP (RDH16-YFP [7]): compete for RDH16-YFP | ARE-luciferase signal (ARE-luciferase): produced ARE-luciferase signal

C[C@]12CCC3C(CC[C@H]4C[C@H](O)CC[C@]34C)C1CC[C@@H]2OCC(=O)NCCc1cc(=O)oc2c3c4c(cc12)CCCN4CCC3 (stereo partly drawn) [DIOL-17C, N-2′-(2,3,4,5-Tetrahydro-1H,4H-10-keto-11-oxa-3α-azabenzo[de]anthracenyl)ethyl (3α-hydroxy-5α-androstan-17β-yl)glycolamide]
CaP cell growth (MTT) (VCaP cells; 20 nM, 6 days in SFM, FIG. 14 VCaP): impaired CaP cell growth | co-localization with RDH16-YFP and DRAQ5 in the nucleus (RDH16-YFP [8]): co-localized with RDH16-YFP | competition for RDH16-YFP (RDH16-YFP [7]): compete for RDH16-YFP | 3α-oxidoreductase metabolism to DHT-17C (3α-oxidoreductase): did not impair 3α-oxidoreductase metabolism of DIOL-17C to DHT-17C | free DIOL and orphan coumarin produced by cells (3α-oxidoreductase): No orphan fluorophores were detected
